According to US10766869B2, “Triazoles for the treatment of demyelinating dieases” (Vertex Pharmaceuticals Incorporated, priority 2015, dated 2020):
Like-named read-outs stand apart in the source and are kept apart here.

System: primary rat mixed cortical cells
Assay: In vitro myelination assay (MBP positive myelin strands, fold myelin pixels above background)
Type: cell-based
Settings: Rattus norvegicus; for fold induction at 1 µM: 1.0 μM compound; for fold induction at 10 µM: 10.0 μM compound
In short: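 Fourteen-day treatment of primary P1 rat mixed cortical cultures, re-dosed at days 6 and 10, at 1.0 μM and 10.0 μM. MBP immunofluorescence was imaged at 10× and myelin strands quantified by software, normalised to untreated wells as fold above background.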

[1] = relative to baseline of no added compound, read-out: Fold myelin pixels above background
[2] = read-out: Fold myelin pixels above background relative to baseline of no added compound
[3] = relative to baseline of no added compound, read-out: Fold myelin pixels above background, 1.0 μM
[4] = relative to baseline of no added compound, read-out: Fold myelin pixels above background, 10.0 μM

Row | SMILES | fold induction at 1 µM [1] | fold induction at 10 µM [1] | fold induction at 1 µM [2] | fold induction at 10 µM [2] | other results
1 | Cc1cc(Nc2ncn(-c3cc(F)cc(F)c3)n2)c(F)c(N2CC3(COC3)C2)c1 [Compound 743, 1-(3,5-difluorophenyl)-N-[2-fluoro-5-methyl-3-(2-oxa-6-azaspiro[3.3]heptan-6-yl)phenyl]-1,2,4-triazol-3-amine] | 1 to 10 | 10 to 100 |  |  | 
2 | Cc1cc(Nc2ncn(-c3cc(F)cc(F)c3)n2)cc(OCC2(C)COC2)c1 [Compound 677, 1-(3,5-difluorophenyl)-N-[3-methyl-5-[(3-methyloxetan-3-yl)methoxy]phenyl]-1,2,4-triazol-3-amine] | 100 to 1000 | ≤ 1 |  |  | 
3 | CC1=NOC(CNc2cc(C)cc(Nc3ncn(-c4cc(F)cc(F)c4)n3)c2)C1 (centres unmarked) [Compound 1004, N1-[1-(3,5-difluorophenyl)-1,2,4-triazol-3-yl]-5-methyl-N3-[(3-methyl-4,5-dihydroisoxazol-5-yl)methyl]benzene-1,3-diamine] |  |  | 1 to 10 | 1 to 10 | 
4 | N#Cc1cc(Nc2ncn(-c3cccnc3)n2)cc(N2CCOCC2)c1 [Compound 763, 3-morpholino-5-[[1-(3-pyridyl)-1,2,4-triazol-3-yl]amino]benzonitrile] | 10 to 100 | 10 to 100 |  |  | 
5 | Cc1cc(Nc2ncn(-c3cc(F)cc(F)c3)n2)c(F)c(N2CCN(C(CO)CO)CC2)c1 [Compound 989, 2-[4-[3-[[1-(3,5-difluorophenyl)-1,2,4-triazol-3-yl]amino]-2-fluoro-5-methyl-phenyl]piperazin-1-yl]propane-1,3-diol] |  |  | ≤ 1 | ≤ 1 | 
6 | Cc1cc(Nc2ncn(-c3cc(F)cc(F)c3)n2)cc(N2CCN(CC3CCOC3)CC2)c1 (centres unmarked) [Compound 936, 1-(3,5-difluorophenyl)-N-[3-methyl-5-[4-(tetrahydrofuran-3-ylmethyl)piperazin-1-yl]phenyl]-1,2,4-triazol-3-amine] |  |  | 10 to 100 | ≤ 1 | 
7 | Cc1cc(Nc2ncn(-c3cc(F)cc(F)c3)n2)cc(N2CCC(OCCF)CC2)c1 [Compound 950, 1-(3,5-difluorophenyl)-N-[3-[4-(2-fluoroethoxy)-1-piperidyl]-5-methyl-phenyl]-1,2,4-triazol-3-amine] |  |  | 10 to 100 | 1 to 10 | 
8 | CC(=O)N1CC(CNc2cc(C)cc(Nc3ncn(-c4cc(F)cc(F)c4)n3)c2)C1 [Compound 1031, 1-[3-[[3-[[1-(3,5-difluorophenyl)-1,2,4-triazol-3-yl]amino]-5-methyl-anilino]methyl]azetidin-1-yl]ethanone] |  |  | 10 to 100 | ≤ 1 | 
9 | CC(=O)N1CCCC(c2cc(C)cc(Nc3ncn(-c4cnccn4)n3)c2)C1 (centres unmarked) [Compound 300, 1-[3-[3-methyl-5-[(1-pyrazin-2-yl-1,2,4-triazol-3-yl)amino]phenyl]-1-piperidyl]ethanone] |  |  |  |  | fold induction at 1 µM [3]: 100 to 1000; fold induction at 10 µM [4]: ≤ 1
10 | Cc1cc(Nc2ncn(-c3cc(F)cc(F)c3)n2)c(C)c(N2CCN(C3COC3)CC2)c1 [Compound 697, 1-(3,5-difluorophenyl)-N-[2,5-dimethyl-3-[4-(oxetan-3-yl)piperazin-1-yl]phenyl]-1,2,4-triazol-3-amine] | 1 to 10 | 10 to 100 |  |  | 
11 | Cc1cc(Nc2ncn(-c3ccc(Cl)c(F)c3)n2)nc(N2CCN(C3COC3)CC2)c1 [Compound 749, N-[1-(4-chloro-3-fluoro-phenyl)-1,2,4-triazol-3-yl]-4-methyl-6-[4-(oxetan-3-yl)piperazin-1-yl]pyridin-2-amine] | 10 to 100 | 10 to 100 |  |  | 
12 | N#Cc1cc(Nc2ncn(-c3ccc(F)c(F)c3)n2)cc(N2CCN(C3COC3)CC2)c1 [Compound 656, 3-[[1-(3,4-difluorophenyl)-1,2,4-triazol-3-yl]amino]-5-[4-(oxetan-3-yl)piperazin-1-yl]benzonitrile] | 1 to 10 | ≤ 1 |  |  | 
13 | Cc1cc(Nc2ncn(-c3ccc(F)c(F)c3)n2)cc(OCC2CCOCC2)c1 [Compound 627, 1-(3,4-difluorophenyl)-N-[3-methyl-5-(tetrahydropyran-4-ylmethoxy)phenyl]-1,2,4-triazol-3-amine] | 1 to 10 | 10 to 100 |  |  | 
14 | Cc1cc(Nc2ncn(-c3cc(F)cc(F)c3)n2)cc(N2CCOC3(COC3)C2)c1 [Compound 724, 1-(3,5-difluorophenyl)-N-[3-(2,5-dioxa-8-azaspiro[3.5]nonan-8-yl)-5-methyl-phenyl]-1,2,4-triazol-3-amine] | 1 to 10 | 1 to 10 |  |  | 
15 | C1=C(c2cc(Nc3ncn(-c4ccccc4)n3)cc(C3=CCOCC3)c2)CCOC1 [Compound 315, N-[3,5-bis(3,6-dihydro-2H-pyran-4-yl)phenyl]-1-phenyl-1,2,4-triazol-3-amine] |  |  |  |  | fold induction at 1 µM [3]: 100 to 1000; fold induction at 10 µM [4]: 100 to 1000
16 | Cc1cc(Nc2ncn(-c3cc(F)cc(F)c3)n2)cc(N2CCC(N3CCC(O)C3)C2)c1 (centres unmarked) [Compound 1040, 1-[1-[3-[[1-(3,5-difluorophenyl)-1,2,4-triazol-3-yl]amino]-5-methyl-phenyl]pyrrolidin-3-yl]pyrrolidin-3-ol] |  |  | 10 to 100 | ≤ 1 | 
17 | [2H]C1([2H])N(CC)C([2H])([2H])C([2H])([2H])N(c2cc(C)cc(Nc3ncn(-c4cc(F)cc(F)c4)n3)c2)C1([2H])[2H] [Compound 947, 1-(3,5-difluorophenyl)-N-[3-methyl-5-(2,2,3,3,5,5,6,6-octadeuterio-4-ethyl-piperazin-1-yl)phenyl]-1,2,4-triazol-3-amine] |  |  | 1 to 10 | ≤ 1 | 
18 | CN1CCN(c2cc(Nc3ncn(-c4cc(F)cc(F)c4)n3)cc(N3CCN(C)CC3)c2)CC1 [Compound 657, N-[3,5-bis(4-methylpiperazin-1-yl)phenyl]-1-(3,5-difluorophenyl)-1,2,4-triazol-3-amine] | 1 to 10 | ≤ 1 |  |  | 
19 | Fc1cc(F)cc(-n2cnc(Nc3cc(C(F)(F)F)cc(N4CCN(C5CCOC5)CC4)n3)n2)c1 (centres unmarked) [Compound 564, N-[1-(3,5-difluorophenyl)-1,2,4-triazol-3-yl]-6-(4-tetrahydrofuran-3-ylpiperazin-1-yl)-4-(trifluoromethyl)pyridin-2-amine] | ≤ 1 | ≤ 1 |  |  | 
20 | Cc1cc(Nc2ncn(-c3cc(F)cc(F)c3)n2)cc(N2CCNC(C)C2)c1 (centres unmarked) [Compound 362, 1-(3,5-difluorophenyl)-N-[3-methyl-5-(3-methylpiperazin-1-yl)phenyl]-1,2,4-triazol-3-amine] |  |  |  |  | fold induction at 1 µM [3]: 100 to 1000; fold induction at 10 µM [4]: ≤ 1
21 | Cc1cc(Nc2ncn(-c3cc(F)cc(F)c3)n2)nc(N2CC3CCOC3C2)c1 (centres unmarked) [Compound 843, 6-(2,3,3a,4,6,6a-hexahydrofuro[2,3-c]pyrrol-5-yl)-N-[1-(3,5-difluorophenyl)-1,2,4-triazol-3-yl]-4-methyl-pyridin-2-amine] |  |  | 1 to 10 | 1 to 10 | 
22 | COCCNC1CN(c2cc(C)cc(Nc3ncn(-c4cc(F)cc(F)c4)n3)c2)C1 [Compound 816, 1-(3,5-difluorophenyl)-N-[3-[3-(2-methoxyethylamino)azetidin-1-yl]-5-methyl-phenyl]-1,2,4-triazol-3-amine] |  |  | 1 to 10 | 1 to 10 | 
